Assay results: patent US20240262819A1, “NOVEL COMPOUNDS HAVING INHIBITORY ACTIVITY AGAINST GLUCOSYLCERAMIDE SYNTHASE OR PHARMACEUTICALLY ACCEPTABLE SALT THEREOF, PROCESSES FOR PREPARING THE SAME, AND PHARMACEUTICAL COMPOSITIONS COMPRISING THE SAME” (YUHAN CORPORATION, priority 2021, published 2024)
Read-outs that look alike come from different tables or passages of the source.

Columns and labels:
[1] = tested on: GM1 production in Jurkat cells; test: cells; format: cell-based
[2] = biological target: glucosylceramide synthase (GCS) (Homo sapiens (Human), UniProt Q16739); test: Evaluation of inhibitory activities against GCS (A549 cell lysate, NBD C6-ceramide, HPLC); format: biochemical
Outline: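 GCS activity in A549 cell lysate (50 mM HEPES, pH 7.3) with NBD C6-ceramide, reacted 90 min at 37 °C. Lipids were chloroform/methanol-extracted and separated by normal-phase HPLC with fluorescence detection (ex 470/em 530 nm). GlcCer fraction of peak area was normalized between DMSO and ibiglustat, and IC50 obtained by curve fitting.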

[3] = % GCS activity, A549 cell lysate, 37° C. for 90 minutes, read-out: IC50

glucosylceramide synthase (GCS), sequence (Q16739 whole entry): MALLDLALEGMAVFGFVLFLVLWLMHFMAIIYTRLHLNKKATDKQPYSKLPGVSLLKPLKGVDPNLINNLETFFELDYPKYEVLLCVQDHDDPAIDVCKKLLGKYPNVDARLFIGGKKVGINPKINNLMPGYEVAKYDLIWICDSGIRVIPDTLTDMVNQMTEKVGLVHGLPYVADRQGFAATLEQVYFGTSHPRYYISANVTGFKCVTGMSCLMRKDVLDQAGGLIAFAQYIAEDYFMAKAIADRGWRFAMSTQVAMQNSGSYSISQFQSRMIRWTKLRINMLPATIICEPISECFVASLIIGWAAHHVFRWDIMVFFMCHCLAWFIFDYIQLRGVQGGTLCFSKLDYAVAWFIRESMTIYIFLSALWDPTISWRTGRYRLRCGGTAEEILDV

| SMILES | IC50 ([1]; Homo sapiens, Jurkat, 72 h) | IC50 [2] | IC50 ([1]; read-out: IC50) | IC50 [2, 3] |
| --- | --- | --- | --- | --- |
| CCOc1c(C)cc(-c2ccc3c(c2)CCC(C)(C)[C@H]3NC(=O)O[C@@H]2CN3CCC2CC3)cc1C [Example 164, (S)-quinuclidin-3-yl((R)-6-(4-ethoxy-3,5-dimethylphenyl)-2,2-dimethyl-1,2,3,4-tetrahydronaphthalen-1-yl)carbamate] | 8.4 nM | 1.39 nM | – | – |
| COc1ccc(-c2ccc3c(c2)CCC(C)(C)[C@H]3NC(=O)O[C@@H]2CN3CCC2CC3)cc1 [Example 166, (S)-quinuclidin-3-yl((R)-6-(4-methoxyphenyl)-2,2-dimethyl-1,2,3,4-tetrahydronaphthalen-1-yl)carbamate] | 5.9 nM | 0.69 nM | – | – |
| CC(C)Oc1ccc(-c2ccc3c(c2)CCC(C)(C)[C@H]3NC(=O)O[C@@H]2CN3CCC2CC3)cc1 [Example 167, (S)-quinuclidin-3-yl((R)-6-(4-isopropoxyphenyl)-2,2-dimethyl-1,2,3,4-tetrahydronaphthalen-1-yl)carbamate] | 3.16 nM | 0.37 nM | – | – |
| CCc1ccc(-c2ccc3c(c2)CCC(C)(C)[C@H]3NC(=O)O[C@@H]2CN3CCC2CC3)cc1F [Example 169, (S)-quinuclidin-3-yl((R)-6-(4-ethyl-3-fluorophenyl)-2,2-dimethyl-1,2,3,4-tetrahydronaphthalen-1-yl)carbamate] | 1.7 nM | 0.14 nM | – | – |
| CCc1ccc(-c2cc3c(cc2F)[C@H](NC(=O)O[C@@H]2CN4CCC2CC4)C(C)(C)CC3)cc1 [Example 170, (S)-quinuclidin-3-yl((R)-6-(4-ethylphenyl)-7-fluoro-2,2-dimethyl-1,2,3,4-tetrahydronaphthalen-1-yl)carbamate] | 1.4 nM | 0.31 nM | – | – |
| CCCCc1ccc(-c2cc3c(cc2F)[C@H](NC(=O)O[C@@H]2CN4CCC2CC4)C(C)(C)CC3)cc1 [Example 173, (S)-quinuclidin-3-yl((R)-6-(4-butylphenyl)-7-fluoro-2,2-dimethyl-1,2,3,4-tetrahydronaphthalen-1-yl)carbamate] | 0.3 nM | 0.24 nM | – | – |
| CC(C)Cc1ccc(-c2cc3c(cc2F)[C@H](NC(=O)O[C@@H]2CN4CCC2CC4)C(C)(C)CC3)cc1 [Example 174, (S)-quinuclidin-3-yl((R)-7-fluoro-6-(4-isobutylphenyl)-2,2-dimethyl-1,2,3,4-tetrahydronaphthalen-1-yl)carbamate] | 0.9 nM | 0.35 nM | – | – |
| CCCCOc1ccc(-c2cc3c(cc2F)[C@H](NC(=O)O[C@@H]2CN4CCC2CC4)C(C)(C)CC3)cc1 [Example 178, (S)-quinuclidin-3-yl((R)-6-(4-butoxyphenyl)-7-fluoro-2,2-dimethyl-1,2,3,4-tetrahydronaphthalen-1-yl)carbamate] | 0.4 nM | 0.22 nM | – | – |
| CC(C)COc1ccc(-c2cc3c(cc2F)[C@H](NC(=O)O[C@@H]2CN4CCC2CC4)C(C)(C)CC3)cc1 [Example 179, (S)-quinuclidin-3-yl((R)-7-fluoro-6-(4-isobutoxyphenyl)-2,2-dimethyl-1,2,3,4-tetrahydronaphthalen-1-yl)carbamate] | 0.22 nM | 0.19 nM | – | – |
| Cc1cc(-c2cc3c(cc2F)[C@H](NC(=O)O[C@@H]2CN4CCC2CC4)C(C)(C)CC3)cc(C)c1OC(C)C [Example 182, (S)-quinuclidin-3-yl((R)-7-fluoro-6-(4-isopropoxy-3,5-dimethylphenyl)-2,2-dimethyl-1,2,3,4-tetrahydronaphthalen-1-yl)carbamate] | 12.9 nM | 3.1 nM | – | – |
| CCCCOc1c(C)cc(-c2cc3c(cc2F)[C@H](NC(=O)O[C@@H]2CN4CCC2CC4)C(C)(C)CC3)cc1C [Example 183, (S)-quinuclidin-3-yl((R)-6-(4-butoxy-3,5-dimethylphenyl)-7-fluoro-2,2-dimethyl-1,2,3,4-tetrahydronaphthalen-1-yl)carbamate] | 7.6 nM | 1.6 nM | – | – |
| COc1cccc(-c2cc3c(cc2F)[C@H](NC(=O)O[C@@H]2CN4CCC2CC4)C(C)(C)CC3)c1 [Example 184, (S)-quinuclidin-3-yl((R)-7-fluoro-6-(3-methoxyphenyl)-2,2-dimethyl-1,2,3,4-tetrahydronaphthalen-1-yl)carbamate] | 2.29 nM | 0.3 nM | – | – |
| CCOc1cccc(-c2cc3c(cc2F)[C@H](NC(=O)O[C@@H]2CN4CCC2CC4)C(C)(C)CC3)c1 [Example 185, (S)-quinuclidin-3-yl((R)-6-(3-ethoxyphenyl)-7-fluoro-2,2-dimethyl-1,2,3,4-tetrahydronaphthalen-1-yl)carbamate] | 3.6 nM | 0.3 nM | – | – |
| CCCCOc1cccc(-c2cc3c(cc2F)[C@H](NC(=O)O[C@@H]2CN4CCC2CC4)C(C)(C)CC3)c1 [Example 186, (S)-quinuclidin-3-yl((R)-6-(3-butoxyphenyl)-7-fluoro-2,2-dimethyl-1,2,3,4-tetrahydronaphthalen-1-yl)carbamate] | 0.71 nM | 0.46 nM | – | – |
| CCc1cccc(-c2cc3c(cc2F)[C@H](NC(=O)O[C@@H]2CN4CCC2CC4)C(C)(C)CC3)c1 [Example 187, (S)-quinuclidin-3-yl((R)-6-(3-ethylphenyl)-7-fluoro-2,2-dimethyl-1,2,3,4-tetrahydronaphthalen-1-yl)carbamate] | 1.3 nM | 0.51 nM | – | – |
| CCCc1cccc(-c2cc3c(cc2F)[C@H](NC(=O)O[C@@H]2CN4CCC2CC4)C(C)(C)CC3)c1 [Example 188, (S)-quinuclidin-3-yl((R)-7-fluoro-2,2-dimethyl-6-(3-propylphenyl)-1,2,3,4-tetrahydronaphthalen-1-yl)carbamate] | 2.7 nM | 0.84 nM | – | – |
| CC(C)Cc1cccc(-c2cc3c(cc2F)[C@H](NC(=O)O[C@@H]2CN4CCC2CC4)C(C)(C)CC3)c1 [Example 189, (S)-quinuclidin-3-yl((R)-7-fluoro-6-(3-isobutylphenyl)-2,2-dimethyl-1,2,3,4-tetrahydronaphthalen-1-yl)carbamate] | 6 nM | 1.04 nM | – | – |
| CC(C)c1cccc(-c2cc3c(cc2F)[C@H](NC(=O)O[C@@H]2CN4CCC2CC4)C(C)(C)CC3)c1 [Example 190, (S)-quinuclidin-3-yl((R)-7-fluoro-6-(3-isopropylphenyl)-2,2-dimethyl-1,2,3,4-tetrahydronaphthalen-1-yl)carbamate] | 1.9 nM | 0.72 nM | – | – |
| CC(C)COc1cccc(-c2cc3c(cc2F)[C@H](NC(=O)O[C@@H]2CN4CCC2CC4)C(C)(C)CC3)c1 [Example 191, (S)-quinuclidin-3-yl((R)-7-fluoro-6-(3-isobutoxyphenyl)-2,2-dimethyl-1,2,3,4-tetrahydronaphthalen-1-yl) carbamate] | – | – | 2.28 nM | 0.62 nM |
| CCCOc1cccc(-c2cc3c(cc2F)[C@H](NC(=O)O[C@@H]2CN4CCC2CC4)C(C)(C)CC3)c1 [Example 192, (S)-quinuclidin-3-yl((R)-7-fluoro-2,2-dimethyl-6-(3-propoxyphenyl)-1,2,3,4-tetrahydronaphthalen-1-yl) carbamate] | – | – | 2.9 nM | 0.53 nM |
| CCOc1c(C)cc(-c2cc3c(cc2F)[C@H](NC(=O)O[C@@H]2CN4CCC2CC4)C(C)(C)CC3)cc1C [Example 195, (S)-quinuclidin-3-yl((R)-6-(4-ethoxy-3,5-dimethylphenyl)-7-fluoro-2,2-dimethyl-1,2,3,4-tetrahydronaphthalen-1-yl)carbamate] | 8.3 nM | 1.29 nM | – | – |
